ChEMBL document CHEMBL1201862, “PubChem BioAssay data set” (2004)
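Results reflect a 48-hour exposure of cells in 96-well plates to compound at five concentrations. Here, GI50 denotes the concentration required for 50% inhibition of growth.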 Calls of active or inactive are those of the source. Rule as the data show it: active = GI50 up to about 1.1 µM and inactive = higher.

How the values were obtained:
Assay in all cases: NCI anticancer screen, dose series, 48 h
[1] = test system: SW-620
[2] = test system: HCT-116
[3] = test system: A549
[4] = test system: MOLT-4
[5] = test system: HCC 2998
[6] = test system: UACC-62
[7] = test system: COLO 205
[8] = test system: M14
[9] = test system: NCI-H23
[10] = test system: TK-10
[11] = test system: SNB-75
[12] = test system: Malme-3M
[13] = test system: SK-OV-3
[14] = test system: NCI-H522
[15] = test system: HOP-62
[16] = test system: A498
[17] = test system: SR
[18] = test system: SF-539

Measured: GI50

NC(CCc1nc(-c2ccc(Cl)cc2)cs1)C(=O)O (stereo not given)
inactive: [1] > 100 µM | [2] > 100 µM | [3] > 100 µM | [4] > 100 µM | [5] > 100 µM | [6] > 100 µM | [7] > 100 µM | [8] > 100 µM | [9] > 100 µM | [10] > 100 µM | [11] > 100 µM | [12] > 100 µM | [13] > 100 µM | [14] > 100 µM | [15] > 100 µM | [16] > 100 µM | [17] > 100 µM

CC1(C)C(=O)C(C)(C)C1=NNC(N)=S
inactive: [1] > 100 µM | [18] > 100 µM | [2] > 100 µM | [3] > 100 µM | [4] > 100 µM | [5] > 100 µM | [6] > 100 µM | [7] > 100 µM | [8] > 100 µM | [9] > 100 µM | [10] > 100 µM | [11] > 100 µM | [12] > 100 µM | [13] > 100 µM | [14] > 100 µM | [15] > 100 µM | [17] > 100 µM

Cc1cccc(C)c1NC(=O)CCCC(=O)CC(=O)/C=C/c1ccccc1
inactive: [1] > 100 µM | [18] > 100 µM | [2] > 100 µM | [3] > 100 µM | [4] > 100 µM | [6] > 100 µM | [7] > 100 µM | [8] > 100 µM | [9] > 100 µM | [10] > 100 µM | [11] > 100 µM | [12] > 100 µM | [13] > 100 µM | [14] > 100 µM | [16] > 100 µM

Cc1ccc(S(=O)(=O)C(C#N)c2nc3ccccc3nc2-n2ccnc2)cc1 (stereo not given)
inactive: [18] > 100 µM | [2] > 100 µM | [3] > 100 µM | [4] > 100 µM | [5] > 100 µM | [7] > 100 µM | [8] > 100 µM | [9] > 100 µM | [10] > 100 µM | [11] > 100 µM | [12] > 100 µM | [13] > 100 µM | [14] > 100 µM | [15] > 100 µM

CCOC(=O)C(=O)Nc1c(C)cccc1CC
inactive: [1] > 100 µM | [18] > 100 µM | [2] > 100 µM | [3] > 100 µM | [4] > 100 µM | [5] > 100 µM | [6] > 100 µM | [8] > 100 µM | [9] > 100 µM | [10] > 100 µM | [12] > 100 µM | [13] > 100 µM | [14] > 100 µM | [15] > 100 µM | [17] > 100 µM

CNS(=O)(=O)NNS(=O)(=O)c1ccc(C)cc1
inactive: [1] > 100 µM | [18] > 100 µM | [2] > 100 µM | [3] > 100 µM | [4] > 100 µM | [5] > 100 µM | [6] > 100 µM | [7] > 100 µM | [8] > 100 µM | [9] > 100 µM | [10] > 100 µM | [12] > 100 µM | [13] > 100 µM | [14] > 100 µM | [15] > 100 µM | [16] > 100 µM | [17] > 100 µM

O=c1c2ccccc2nc2n1-c1ccccc1SC2
inactive: [1] > 100 µM | [18] > 100 µM | [2] 47.2 µM | [3] > 100 µM | [4] 21.4 µM | [5] 81.1 µM | [6] 33.7 µM | [7] 92.9 µM | [8] 50.5 µM | [9] 38.1 µM | [10] > 100 µM | [11] 17.7 µM | [12] 37.8 µM | [13] > 100 µM | [14] 20.5 µM | [15] > 100 µM | [16] 47.9 µM

CCOC(=O)C1C(NC(N)=O)N(Cc2ccccc2)C(=O)N1Cc1ccccc1 (stereo not given)
inactive: [1] > 100 µM | [18] > 100 µM | [2] > 100 µM | [3] > 100 µM | [4] > 100 µM | [5] > 100 µM | [6] > 100 µM | [7] > 100 µM | [8] > 100 µM | [9] > 10 µM | [10] > 100 µM | [11] > 100 µM | [12] > 100 µM | [13] > 100 µM | [14] > 100 µM | [15] > 100 µM | [17] > 100 µM

C=CC1(C)/C(=N\O)C(C)(CC)C(=O)N1O (stereo not given)
inactive: [1] > 100 µM | [18] > 100 µM | [2] > 100 µM | [3] > 100 µM | [4] > 100 µM | [6] > 100 µM | [7] > 100 µM | [8] > 100 µM | [9] > 100 µM | [10] > 100 µM | [11] > 100 µM | [12] > 100 µM | [13] > 100 µM | [14] > 100 µM | [15] > 100 µM | [16] > 100 µM | [17] > 100 µM

Cc1cc(OCC(O)CO)ccc1-c1ccccc1 (stereo not given)
inactive: [1] 6.65 µM | [2] 77.3 µM | [3] > 100 µM | [4] > 100 µM | [5] > 100 µM | [6] > 100 µM | [7] 61 µM | [8] > 100 µM | [9] > 100 µM | [10] > 100 µM | [11] > 100 µM | [12] > 100 µM | [14] > 100 µM | [16] 11.4 µM | [17] > 100 µM

CN(C)CCn1cnc2sc3ccccc3c21
inactive: [1] > 100 µM | [18] > 100 µM | [2] > 100 µM | [3] > 100 µM | [4] > 100 µM | [5] > 100 µM | [6] > 100 µM | [7] > 100 µM | [8] > 100 µM | [9] > 100 µM | [10] > 100 µM | [11] 22.2 µM | [12] > 100 µM | [13] > 100 µM | [14] > 100 µM | [15] > 100 µM | [16] > 100 µM

O=[N+]([O-])c1ccc2nc3ccscc-3c2c1
inactive: [1] 7.08 µM | [18] 8.49 µM | [3] 18.3 µM | [4] 5.87 µM | [5] 15.2 µM | [6] 21.4 µM | [7] 18.5 µM | [8] 16 µM | [9] 11.7 µM | [10] 20.9 µM | [12] 29 µM | [13] 30.7 µM | [14] 12.4 µM | [15] 17.9 µM | [16] 8.36 µM

NC(=S)N/N=C(\CC1OC(=O)c2ccccc21)c1ccc(Cl)cc1 (stereo not given)
inactive: [1] 44.8 µM | [18] 20.8 µM | [2] 24.4 µM | [3] 48.2 µM | [4] 61.5 µM | [5] 23.9 µM | [6] 19.6 µM | [7] 38.6 µM | [8] 43.2 µM | [9] 25.2 µM | [10] 76.9 µM | [11] 49.2 µM | [12] 30.6 µM | [13] 42.8 µM | [14] 20.9 µM | [15] 23.2 µM | [17] 60.7 µM

COc1cc(C(=O)CC2(O)C(=O)Nc3c(Cl)cc(Cl)cc32)ccc1O (stereo not given)
inactive: [1] 71.6 µM | [3] 55 µM | [4] 26.3 µM | [5] 31.5 µM | [7] 28.7 µM | [8] 66.7 µM | [9] 59.2 µM | [10] > 100 µM | [11] 24.2 µM | [12] > 100 µM | [13] 14.9 µM | [14] 47.8 µM | [15] 37.5 µM

CC(=O)CCn1[nH]c(=O)c(Cl)c(Cl)c1=O
inactive: [1] 15 µM | [18] > 100 µM | [2] > 100 µM | [3] > 100 µM | [4] > 100 µM | [5] > 100 µM | [6] > 100 µM | [8] > 100 µM | [9] > 100 µM | [10] > 100 µM | [11] > 100 µM | [12] > 100 µM | [15] > 100 µM | [16] > 100 µM | [17] > 100 µM

CN(C)CC(C)(C)C(=O)/C=C/c1ccccc1
inactive: [1] 14.5 µM | [18] 16.6 µM | [2] 13.5 µM | [3] 28.8 µM | [4] 14.4 µM | [6] 13.2 µM | [7] 13.3 µM | [8] 13.8 µM | [9] 19.9 µM | [10] 18.2 µM | [11] 16.1 µM | [12] 11.6 µM | [14] 10.3 µM | [15] 28.4 µM | [16] 17 µM

CCOC(=O)C1=C(Nc2ccc(NC3=C(C(=O)OCC)C(=O)CS3)cc2)SCC1=O
inactive: [1] 25.9 µM | [18] 20.1 µM | [2] 18.5 µM | [3] 30.3 µM | [6] 16.9 µM | [7] 17.7 µM | [8] 20.4 µM | [9] 10 µM | [10] 30.7 µM | [11] 16.6 µM | [12] 18.6 µM | [13] 30 µM | [14] 13.7 µM | [15] 34 µM | [16] 20.5 µM

COc1cc(C)c2c(c1C)OC(=O)c1c(C)c(Cl)c(O)c(C=O)c1O2
inactive: [1] 31.8 µM | [18] 12.2 µM | [2] 20.8 µM | [3] 12.8 µM | [4] 9.79 µM | [5] 19.5 µM | [6] 15.7 µM | [7] 29.2 µM | [8] 18.4 µM | [9] 14.7 µM | [10] 29 µM | [11] 14.3 µM | [12] 15.5 µM | [13] 23.4 µM | [15] 20.3 µM | [16] 13.9 µM | [17] 14.3 µM
